# Experimental data: patent US9265253B2, “Use of macrocyclic picolinamides as fungicides” (DOW AGROSCIENCES LLC, priority 2013, dated 2016)
# Assays:
# Leptosphaeria nodorum = assay: Wheat Glume Blotch (LEPTNO) disease control; type: in vivo; details: 1 Day Protectant; for pest or weed control at 100 ppm: Parastagonospora nodorum, topical, 24 h, read-out: Disease Control LEPTNO 1 DP
# Protocol: Technical grades of materials were dissolved in acetone, which were then mixed with nine volumes of water containing 110 ppm Triton X-100. The fungicide solutions were applied onto wheat seedlings using an automated booth sprayer to run-off. All sprayed plants were allowed to air dry prior to further handling. All fungicides were evaluated using the aforementioned method for their activity vs. all target diseases. Wheat leaf blotch and brown rust activity were also evaluated using track spray applications, in which case the fungicides were formulated as EC formulations, containing 0.1% Trycol 5941 in the spray solutions. Wheat plants (variety Yuma) were grown from seed in a greenhouse in 50% mineral soil/50% soil-less Metro mix until the first leaf was fully emerged, with 7-10 seedlings per pot. These plants were inoculated with an aqueous spore suspension of Septoria tritici either prior to or after fungicide treatments. After inoculation the plants were kept in 100% relative humidity (one day in a dark dew chamber followed by two to three days in a lighted dew chamber at 20° C.) to permit spores to germinate and infect the leaf. The plants were then transferred to a greenhouse set at 20° C. for disease to develop. When disease symptoms were fully expressed on the 1st leaves of untreated plants, infection levels were assessed on a scale of 0 to 100 percent disease severity. Percent disease control was calculated using the ratio of disease severity on treated plants relative to untreated plants. Wheat plants (variety Yuma) were grown from seed in a greenhouse in 50% mineral soil/50% soil-less Metro mix until the first leaf was fully emerged, with 7-10 seedlings per pot. These plants were inoculated with an aqueous spore suspension of Leptosphaeria nodorum 24 hr after fungicide treatments. After inoculation the plants were kept in 100% relative humidity (one day in a dark dew chamber followed by two days in a lighted dew chamber at 20° C.) to permit spores to germinate and infect the leaf. The plants were then transferred to a greenhouse set at 20° C. for disease to develop. Fungicide formulation, application and disease assessment followed the procedures as described in the Example A.
# [1] = system: Blumeria graminis f. sp. tritici; Synonym: Erysiphe graminis f. sp. tritici; assay: Wheat Powdery Mildew (ERYSGT) disease control; type: in vivo; details: 100 ppm, 1 Day Protectant
# Protocol: Technical grades of materials were dissolved in acetone, which were then mixed with nine volumes of water containing 110 ppm Triton X-100. The fungicide solutions were applied onto wheat seedlings using an automated booth sprayer to run-off. All sprayed plants were allowed to air dry prior to further handling. All fungicides were evaluated using the aforementioned method for their activity vs. all target diseases. Wheat leaf blotch and brown rust activity were also evaluated using track spray applications, in which case the fungicides were formulated as EC formulations, containing 0.1% Trycol 5941 in the spray solutions. Wheat plants (variety Yuma) were grown from seed in a greenhouse in 50% mineral soil/50% soil-less Metro mix until the first leaf was fully emerged, with 7-10 seedlings per pot. These plants were inoculated with an aqueous spore suspension of Septoria tritici either prior to or after fungicide treatments. […] When disease symptoms were fully expressed on the 1st leaves of untreated plants, infection levels were assessed on a scale of 0 to 100 percent disease severity. Percent disease control was calculated using the ratio of disease severity on treated plants relative to untreated plants. […]
SMILES,pest or weed control at 100 ppm (Leptosphaeria nodorum),also measured
CCOCC(=O)OCOc1c(OC)ccnc1C(=O)N[C@H]1CCC[C@H](CCOC)[C@@H](Oc2ccccc2)[C@H](C)OC1=O [Compound F183],80 to 100%,–
COc1ccnc(C(=O)N[C@H]2CCC[C@H](CC3CCCC3)[C@@H](OCC3CC3)[C@H](C)OC2=O)c1OCOC(C)=O [Compound F117],80 to 100%,–
COc1ccnc(C(=O)N[C@H]2CCC[C@H](Cc3ccc(F)cc3F)[C@@H](OCC(C)C)[C@H](C)OC2=O)c1OCOC(C)=O [Compound F145],80 to 100%,melting point: 48 to 53 °C
COc1ccnc(C(=O)N[C@H]2CCC[C@H](Cc3ccc(F)cc3)[C@@H](OCC3CC3)[C@H](C)OC2=O)c1OCOC(C)=O [Compound F96],80 to 100%,–
"COc1ccnc(C(=O)N[C@H]2CCC[C@H](CCF)[C@@H](OCC(C)C)[C@H](C)OC2=O)c1OCOC(C)=O [Compound F128, ((2-(((3S,7R,8R,9S)-7-(2-fluoroethyl)-8-isobutoxy-9-methyl-2-oxooxonan-3-yl)carbamoyl)-4-methoxypyridin-3-yl)oxy)methyl acetate]",80 to 100%,–
COc1ccnc(C(=O)N[C@H]2CCC[C@H](Cc3ccccc3)[C@@H](OCC(C)C)[C@H](C)OC2=O)c1OCOC(C)=O [Compound F106],80 to 100%,Disease Control ERYSGT 1 DP [1]: A (80-100)
CCOCC(=O)OCOc1c(OC)ccnc1C(=O)N[C@H]1CCC[C@H](Cc2ccc(F)cc2)[C@@H](OCC2CC2)[C@H](C)OC1=O [Compound F164],80 to 100%,–
COc1ccnc(C(=O)N[C@H]2CCC[C@H](Cc3ccc(F)cc3)[C@@H](OCC3CC3)[C@H](C)OC2=O)c1OCOC(C)=O [Compound F98],–,Disease Control LEPTNO 1 DP (Leptosphaeria nodorum; 100 ppm): A (80-100)
CCCO[C@@H]1[C@@H](CCC(C)C)CCC[C@H](NC(=O)c2nccc(OC)c2OCOC(=O)COCC)C(=O)O[C@H]1C [Compound F161],80 to 100%,–
CCCO[C@@H]1[C@@H](Cc2ccccc2)CCC[C@H](NC(=O)c2nccc(OC)c2OC(C)=O)C(=O)O[C@H]1C [Compound F88],80 to 100%,–
C=C[C@H]1CCC[C@H](NC(=O)c2nccc(OC)c2OC(C)=O)C(=O)O[C@@H](C)[C@@H]1Oc1ccccc1 [Compound F86],80 to 100%,–
COc1ccnc(C(=O)N[C@H]2CCC[C@H](Cc3ccccc3)[C@@H](OCC(C)C)[C@H](C)OC2=O)c1OCOC(=O)C(C)C [Compound F151],80 to 100%,Disease Control ERYSGT 1 DP [1]: A (80-100); melting point: 122 to 124 °C
COc1ccnc(C(=O)N[C@H]2CCC[C@H](Cc3ccccc3)[C@@H](Oc3ccccc3)[C@H](C)OC2=O)c1OCOC(C)=O [Compound F108],80 to 100%,–
CCCO[C@@H]1[C@@H](CCC(C)C)CCC[C@H](NC(=O)c2nccc(OC)c2OCOC(C)=O)C(=O)O[C@H]1C [Compound F92],80 to 100%,–
CCOCC(=O)OCOc1c(OC)ccnc1C(=O)N[C@H]1CCC[C@H](Cc2ccc(F)cc2F)[C@@H](OC(=O)c2ccco2)[C@H](C)OC1=O [Compound F193],80 to 100%,melting point: 70 to 75 °C
COc1ccnc(C(=O)N[C@H]2CCC[C@H](Cc3ccc(F)cc3)[C@@H](OCC3CC3)[C@H](C)OC2=O)c1OC(C)=O [Compound F67],80 to 100%,–
COc1ccnc(C(=O)N[C@H]2CCC[C@H](Cc3ccc(F)cc3F)[C@@H](OC(=O)c3ccco3)[C@H](C)OC2=O)c1OCOC(=O)C(C)C [Compound F157],80 to 100%,melting point: 68 to 72 °C
CCCO[C@@H]1[C@@H](Cc2ccccc2)CCC[C@H](NC(=O)c2nccc(OC)c2OC(=O)CCOC)C(=O)O[C@H]1C [Compound F198],80 to 100%,–
CCO[C@@H]1[C@@H](Cc2ccccc2)CCC[C@H](NC(=O)c2nccc(OC)c2OC(C)=O)C(=O)O[C@H]1C [Compound F87],80 to 100%,–
C=C[C@H]1CCC[C@H](NC(=O)c2nccc(OC)c2OCOC(C)=O)C(=O)O[C@@H](C)[C@@H]1Oc1ccccc1 [Compound F146],80 to 100%,–
COc1ccnc(C(=O)N[C@H]2CCC[C@H](Cc3ccccc3)[C@@H](OCC(C)C)[C@H](C)OC2=O)c1OC(C)=O [Compound F70],80 to 100%,–
COCC[C@H]1CCC[C@H](NC(=O)c2nccc(OC)c2OC(C)=O)C(=O)O[C@@H](C)[C@@H]1Oc1ccccc1 [Compound F78],80 to 100%,–
CCCO[C@@H]1[C@@H](Cc2ccccc2)CCC[C@H](NC(=O)c2nccc(OC)c2OCOC(=O)COCC)C(=O)O[C@H]1C [Compound F174],80 to 100%,–
COCC[C@H]1CCC[C@H](NC(=O)c2nccc(OC)c2OCOC(C)=O)C(=O)O[C@@H](C)[C@@H]1Oc1ccccc1 [Compound F130],80 to 100%,–
CCCO[C@@H]1[C@@H](Cc2ccccc2)CCC[C@H](NC(=O)c2nccc(OC)c2OCOC(C)=O)C(=O)O[C@H]1C [Compound F109],80 to 100%,–
CCOCC(=O)OCOc1c(OC)ccnc1C(=O)N[C@H]1CCC[C@H](CCF)[C@@H](OCC(C)C)[C@H](C)OC1=O [Compound F181],80 to 100%,–
CCOCC(=O)OCOc1c(OC)ccnc1C(=O)N[C@H]1CCC[C@H](Cc2ccccc2)[C@@H](OCC(C)C)[C@H](C)OC1=O [Compound F172],80 to 100%,–
COc1ccnc(C(=O)N[C@H]2CCC[C@H](Cc3ccccc3)[C@@H](OC3CCCC3)[C@H](C)OC2=O)c1OCOC(C)=O [Compound F110],80 to 100%,–
CCCO[C@@H]1[C@@H](CCC(C)C)CCC[C@H](NC(=O)c2nccc(OC)c2OC(C)=O)C(=O)O[C@H]1C [Compound F64],80 to 100%,–
COc1ccnc(C(=O)N[C@H]2CCC[C@H](Cc3ccc(F)cc3F)[C@@H](OC(=O)c3ccco3)[C@H](C)OC2=O)c1OCOC(C)=O [Compound F144],80 to 100%,melting point: 76 to 80 °C
